Here are results for three compounds from ChEMBL document CHEMBL1151254, “A new anti-HIV alkaloid, drymaritin, and a new C-glycoside flavonoid, diandraflavone, from Drymaria diandra” (J Nat Prod, 2004).

In test [1] the test system is Human immunodeficiency virus. Put plainly: Antiviral activity against HIV in human H9 cells. It is filed as functional, organism-based. Particulars: Human immunodeficiency virus 1, H9.
For another test, the system named is Neutrophil. The test is described as follows: Inhibition of fMLP/CB-stimulated superoxide anion generation in human neutrophils. It is filed as functional, cell-based.

≈ marks a conversion by molar mass, not a printed value.

As to `COc1cnc2ccc(=O)n3c4ccccc4c1c23`, the EC50 – broadly, the concentration that produces a half-maximal response – in test [1] worked out at 20.6 µg/mL (≈ 82.3 µM).

`COc1cn2c3ccccc3c3ccnc(c1=O)c32` [DRYMARITIN]: in test [1], a half-maximal response (EC50) required 0.699 µg/mL (≈ 2.79 µM).

On to `COc1cc2oc(-c3ccc([C@@H]4O[C@H](CO)[C@@H](O)[C@H](O)[C@H]4O)cc3)cc(=O)c2c(O)c1[C@H]1C[C@@H](O)[C@@H](O)[C@@H](C)O1` [DIANDRAFLAVONE A], for which the midpoint of inhibition in the test on Neutrophil, the IC50, lay at 10 µg/mL (≈ 17.8 µM).
